Measured values from patent US20260242359A1, “IRHOM2 INHIBITORS AND USES THEREOF” (NEW YORK SOCIETY FOR THE RELIEF OF THE RUPTURED AND …, priority 2023, published 2026).

Test system: PMA-induced release of endogenous HB-EGF from human peripheral blood mononuclear cells (PBMCs)
Experiment: Example 16: ELISA-based HB-EGF release assay, PMA-induced, PBMCs from healthy donor
Assay type: cell-based
Conditions: 10 μM final concentration, PMA 25 ng/ml, delta Buffer stimulated vs unstimulated = 100% inhibition; for inhibition at 10 µM: Homo sapiens, PBMC
Procedure: In the following study, ELISA-based HB-EGF release assays were performed to analyze the inhibitory effects of Compounds 1, 2, 3, 4, 5, and 7 on PMA-induced release of endogenous HB-EGF from primary human material obtained from healthy donor using peripheral blood mononuclear cells (PBMCs). The ELISA-based HB-EGF release assay that was used in this example is described below.
In brief, on day 1, Nunc black MaxiSorp® 96-well plates (Thermo Fisher Scientific, USA) were coated overnight with 100 μl per well of mouse anti-human HB-EGF capture antibody (provided as part of the DuoSet ELISA kit) at 2 μg/ml TBS at 4° C.
80,000 PBMCs from healthy donor (SciRhom GmbH, Germany) in 80 μl of normal growth medium were seeded in each well of Greiner CELLSTAR V-bottom 96-well plates (Greiner Bio-One, Germany) and pre-incubated with […] per well of standard growth medium supplemented with Batimastat (BB94, Abcam, UK) at 50 μM as positive control (for a final concentration of 10 μM in the resulting 100 μl sample volume), compounds of the invention at 50 μM (for a final concentration of 10 μM in the resulting 100 μl sample volume) and in case of Buffer stimulated and unstimulated controls with DMSO (Carl Roth, Germany) at 50 μM (for a final concentration of 10 μM in the resulting 100 μl sample volume) at 37° C., 5% CO2 for 30 minutes. Subsequently, cells (except those for unstimulated controls) were stimulated with 20 μl per well of PMA (Sigma-Aldrich, USA) at 150 ng/ml in growth medium for a final concentration of 25 ng/ml at 37° C., 5% CO2 for 22 hours.
On day 2, the capture antibody solution was removed and MaxiSorp® plates were blocked with 300 μl per well of TBS, 1% BSA at room temperature for 1-2 hours. Meanwhile, the 96-well plates were centrifuged to pellet cells. In parallel, blocking buffer was removed from the MaxiSorp® plates and plates were washed 4 times with 350 μl TBS-T (Carl Roth, Germany) per well on a 96-head plate washer (Tecan Group, Switzerland). To avoid drying-up, 30 μl TBS were added to each well of the MaxiSorp® plates immediately, followed by the transfer of 70 μl cell-free supernatant per sample. Additionally, 100 μl recombinant human HB-EGF protein (provided as part of the DuoSet ELISA kit) diluted in TBS at defined concentrations were added to the plate as standard references. Plates were incubated at room temperature for 2 hours. After 4 times washing with 350 μl TBS-T (Carl Roth, Germany) per well on a 96-head plate washer (Tecan Group, Switzerland) and careful removal of all buffer traces after the fourth cycle, 100 μl biotinylated goat anti-human HB-EGF detection antibody (provided as part of the DuoSet ELISA kit) at 50 ng/ml TBS were added per well and, protected from direct light, plates were incubated at room temperature for 2 hours.
After 4 times washing with 350 μl TBS-T (Carl Roth, Germany) per well on a 96-head plate washer (Tecan Group, Switzerland) and careful removal of all buffer traces after the fourth cycle, 100 μl streptavidin-AP (R&D Systems, USA) diluted 1:10,000 in TBS were added to each well and, again protected from direct light, plates were incubated at room temperature for 30 minutes. Following another round of 4 times washing with 350 μl TBS-T (Carl Roth, Germany) per well on a 96-head plate washer (Tecan Group, Switzerland) and careful removal of all buffer traces after the fourth cycle, 100 μl AttoPhos substrate solution (Promega, USA) per well was added for incubation in the dark at room temperature for 1 hour. Using an infinite M1000 (Tecan Group, Switzerland) microplate reader, the fluorescence of each well was collected at an excitation wavelength of 435 nm and an emission wavelength of 555 nm.
The delta between Buffer stimulated and Buffer unstimulated was defined 100% inhibition.

| Compound | inhibition of PMA-induced release of HB-EGF from PBMCs from healthy donor (22 hours) [%] | inhibition at 10 µM (22 h) [%] | inhibition at 10 µM (22 hours) [%] |
| --- | --- | --- | --- |
| CNC(=O)[C@H](Cc1ccccc1)NC(=O)[C@H](CC(C)C)[C@H](CSc1cccs1)C(=O)NO [Batimastat, reference compound] | 107.6 | 98.5 |  |
| CCC(=O)NCCc1c(/C=C2/C(=O)NC(=O)N(c3ccc(C)cc3C)C2=O)[nH]c2ccccc12 [Compound 1] |  |  | 101 |
| CCOC(=O)c1ccc(Nc2nc3nonc3n3nnnc23)cc1 [Compound 2] |  | 100 |  |
| O=C(c1c(Cl)cccc1Cl)N1CCC(Cc2ccc(F)cc2)CC1 [Compound 3] |  | 22.4 |  |
| Cc1c(C(=O)NCc2cccs2)sc(=O)n1Cc1ccccc1 [Compound 4] |  | 38.7 |  |
| Cc1c(C(=O)NCc2cccs2)sc(=O)n1Cc1ccccc1F [Compound 5] |  | 34 |  |
| Cc1c(C(=O)NCc2ccco2)sc(=O)n1Cc1ccccc1F [Compound 7] |  | 107 |  |
